Patent EP4786466A1, “QUINAZOLINE DERIVATIVE, SALT THEREOF, AND PHARMACEUTICAL COMPOSITION COMPRISING SAME AS ACTIVE INGREDIENT” (Korea Research Institute of Chemical Technology, priority 2023, dated 2025)
Where two headings read alike, the source gives them in different places.

Assays:
pENSA = pENSA level by immunofluorescence (described method: in vitro kinase analysis with GST-tag-MASTL and His-tag-ENSA); type: cell-based; details: for pENSA (%) Immunofluor ecense (1 µM): compound 1 µM
Description: Two recombinant GST-tag-MASTL (Thermo Fisher Scientific) and His-tag-ENSA (Sino Biological Inc., Beijing, China) were used for in vitro kinase analysis. In vitro kinase analysis was performed as described in the literature [Front Oncol 2020, 10, 571601, 39-202021-10-20doi:10.3389/fonc.2020.571601.].
Phosphorylated ENSA (pENSA), which is activated by phosphorylation by MASTL, can be utilized as a biomarker as it is expected that its activity will be inhibited along with the inhibition of MASTL. In the cell viability assay, MCF7 refers to a breast cancer cell line, and MCF10A refers to a normal breast […] cell line.

[1] = biological target: T1, Recombinant GST-TAG-MASTL (Homo sapiens, UniProt Q96GX5); assay: HTRF-based kinase assay (HTRF KinEASE assay kit); type: biochemical; details: for activity at 1 µM: read-out: MASTL activity (%) HTRF (1 µM)
T1 construct: GST; purchased Thermo Fisher Scientific
T1 sequence (Q96GX5 1-879): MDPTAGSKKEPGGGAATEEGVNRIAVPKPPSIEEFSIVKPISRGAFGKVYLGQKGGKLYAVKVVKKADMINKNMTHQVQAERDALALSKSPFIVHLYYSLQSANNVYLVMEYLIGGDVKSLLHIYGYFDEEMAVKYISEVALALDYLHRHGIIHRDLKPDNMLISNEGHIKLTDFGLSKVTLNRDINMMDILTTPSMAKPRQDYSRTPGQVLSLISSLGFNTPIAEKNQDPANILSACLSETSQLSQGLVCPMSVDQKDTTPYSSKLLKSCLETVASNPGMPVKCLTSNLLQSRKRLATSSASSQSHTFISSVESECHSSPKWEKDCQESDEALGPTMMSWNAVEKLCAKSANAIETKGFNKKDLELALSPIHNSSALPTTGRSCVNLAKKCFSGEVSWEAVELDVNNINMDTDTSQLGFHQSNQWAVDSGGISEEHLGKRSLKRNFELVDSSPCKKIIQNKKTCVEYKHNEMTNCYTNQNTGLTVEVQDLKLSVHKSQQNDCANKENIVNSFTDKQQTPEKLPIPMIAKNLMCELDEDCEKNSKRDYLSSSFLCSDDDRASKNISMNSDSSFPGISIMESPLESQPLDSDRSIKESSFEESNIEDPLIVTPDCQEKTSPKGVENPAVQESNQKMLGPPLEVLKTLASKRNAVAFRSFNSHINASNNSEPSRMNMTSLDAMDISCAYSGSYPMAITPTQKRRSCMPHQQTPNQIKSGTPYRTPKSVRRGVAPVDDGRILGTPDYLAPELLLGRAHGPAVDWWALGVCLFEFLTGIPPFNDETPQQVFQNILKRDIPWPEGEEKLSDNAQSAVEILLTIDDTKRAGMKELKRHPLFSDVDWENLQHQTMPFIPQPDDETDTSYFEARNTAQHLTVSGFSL
Source text: Recombinant GST-TAG-MASTL (Thermo Fisher Scientific, MA, USA) was used for HTRF-based kinase assays. The HTRF KinEASE assay kit (CisBio, MA, USA) was used according to the manufacturer's instructions.

[2] = system: MCF7 breast cancer cell lines; assay: Cell viability analysis, WST-8 assay, MCF7; details: Homo sapiens, MCF7, 72 h; for viability at 10 µM: read-out: Cell viability (%) WST-8, MCF7, footnote b: concentration 10 µM, 72 hours; for IC50: read-out: IC50 Cell viability (MCF7)
Description: MCF7 breast cancer cell lines and MCF10A normal breast cancer cell lines were treated with serial dilutions of the compounds of the present invention ranging from 1 µM to 15.63 nM for 72 hours. Cell viability was measured by the WST-8 assay (Cyto XTM cell viability assay kit; LPS solution, Daejeon, Korea) according to the manufacturer's instructions.

[3] = footnote b: concentration 10 µM
[4] = read-out: MASTL activity (%) HTRF
[5] = read-out: Cell viability (%) WST-8, MCF7 (1 µM), compound 1 µM, 72 hours
[6] = HTRF, read-out: IC50(nM) MASTL activity
[7] = read-out: Cell viability (%) WST-8, MCF7 (1 µM)
[8] = footnote b: concentration 10 µM, read-out: MASTL activity (%) HTRF

Structure (SMILES)	pENSA (%) Immunofluor ecense (pENSA; [3])	viability at 10 µM [2] [%]	IC50 [1, 6] [nM]	IC50 (pENSA; unit µM, read-out: IC50 pENSA) [nM]	activity at 10 µM [1, 8] [%]	IC50 [2] [nM]	also measured
Cc1nn(CC(C)C)c(C)c1Nc1nc(Nc2ccc(CC#N)cc2)nc2ccccc12 [compound 3b, 2-(4-((4-((1-isobutyl-3,5-dimethyl-1G-pyrazol-4-yl)amino)quinazolin-2-yl)amino)phenyl)acetonitrile]	44.3^b %	55.5	–	–	–	–	activity at 10 µM [1, 4]: 123%
Cc1n[nH]cc1Nc1nc(Nc2ccc(CC#N)cc2)nc2ccccc12 [compound 3e, 2-(4-((4-((3-methyl-1G-pyrazol-4-yl)amino)quinazolin-2-yl)amino)phenyl)acetonitrile]	102^b %	108	–	–	–	–	activity at 10 µM [1, 4]: 100%
N#CCc1ccc(Nc2nc(Nc3cc[nH]n3)c3ccccc3n2)cc1 [compound 3o, 2-(4-((4-((1G-pyrazol-3-yl)amino)quinazolin-2-yl)amino)phenyl)acetonitrile]	–	–	–	–	–	–	IC50 [1]: 2600 nM; activity at 1 µM [1]: 102%; viability at 1 µM [2, 5]: 108%
Cc1cc(Nc2nc(Nc3ccc(CC#N)cc3)nc3ccccc23)n[nH]1 [compound 3p, 2-(4-((4-((5-methyl-1G-pyrazol-3-yl)amino)quinazolin-2-yl)amino)phenyl)acetonitrile]	–	–	330	–	–	–	pENSA (%) Immunofluor ecense (1 µM) (pENSA): 27.5%; IC50 (pENSA; read-out: IC50(nM) pENSA): 239 nM; activity at 1 µM ([1]; compound 1 µM): 53.1%; viability at 1 µM [2, 7]: 106%
N#CCc1ccc(Nc2nc(Nc3cc(Br)[nH]n3)c3ccccc3n2)cc1 [compound 3q, 2-(4-((4-((5-bromo-1G-pyrazol-3-yl)amino)quinazolin-2-yl)amino)phenyl)acetonitrile]	–	–	–	–	–	–	IC50 [1]: 640 nM; activity at 1 µM [1]: 63.1%; viability at 1 µM [2, 5]: 105%
COc1cc(Nc2nc(Nc3ccc(CC#N)cc3)nc3ccccc23)n[nH]1 [compound 3r, 2-(4-((4-((5-methoxy-1G-pyrazol-3-yl)amino)quinazolin-2-yl)amino)phenyl)acetonitrile]	–	–	–	–	–	–	IC50 [1]: 816 nM; activity at 1 µM [1]: 67.2%; viability at 1 µM [2, 5]: 98.3%
N#CCc1ccc(Nc2nc(Nc3n[nH]c4ccccc34)c3ccccc3n2)cc1 [compound 3s, 2-(4-((4-((1G-indazol-3-yl)amino)quinazolin-2-yl)amino)phenyl)acetonitrile]	–	–	–	–	–	–	pENSA (%) Immunofluor ecense (1 µM) (pENSA): 60.6%; IC50 ([1]; HTRF, unit µM, read-out: IC50 MASTL activity): 4400 nM; activity at 1 µM ([1]; compound 1 µM): 102%; viability at 1 µM [2, 7]: 100%
N#CCc1ccc(Nc2nc(Nc3ccccc3OCc3ccccc3)c3ccccc3n2)cc1 [compound 3t, 2-(4-((4-((2-(benzyloxy)phenyl)amino)quinazolin-2-yl)amino)phenyl)acetonitrile]	–	–	–	–	–	–	activity at 1 µM ([1]; compound 1 µM): 120%; viability at 1 µM [2, 5]: 45.4%
N#CCc1ccc(Nc2nc(Nc3ccccc3O)c3ccccc3n2)cc1 [compound 3u, 2-(4-((4-((2-hydroxyphenyl)amino)quinazolin-2-yl)amino)phenyl)acetonitrile]	–	–	–	–	–	–	IC50 (pENSA; read-out: IC50(nM) pENSA): 678 nM; activity at 1 µM ([1]; compound 1 µM): 121%; viability at 1 µM [2, 5]: 49.3%
O=S(=O)(c1ccc(-c2ccccc2)cc1)N1CC2CC1CN2c1nc(Nc2cc(C3CC3)[nH]n2)c2ccccc2n1 (centres unmarked) [compound 15aa, 2-(5-([1,1'-biphenyl]-4-ylsulfonyl)-2,5-diazabicyclo[2.2.1]heptan-2-yl)-M-(5-cyclopropyl-1G-pyrazol-3-yl)quinazolin-4-amine]	–	–	–	–	–	–	pENSA (%) Immunofluor ecense (pENSA; footnote d: concentration 1.1 µM): 61.2^d %; activity at 1.1 µM [1, 4]: 55.5%; viability at 1.1 µM ([2]; read-out: Cell viability (%) WST-8, MCF7, footnote d: concentration 1.1 µM, 72 hours): 87.5%
O=S(=O)(c1cccs1)N1CC2CC1CN2c1nc(Nc2cc(C3CC3)[nH]n2)c2ccccc2n1 (centres unmarked) [compound 15ab, M-(5-cyclopropyl-1G-pyrazol-3-yl)-2-(5-(thiophen-2-ylsulfonyl)-2,5-diazabicyclo[2.2.1]heptan-2-yl)quinazolin-4-amine]	0.4^b %	3.9	222	2500	17.3	2400	–
O=S(=O)(C1CC1)N1CC2CC1CN2c1nc(Nc2cc(C3CC3)[nH]n2)c2ccccc2n1 (centres unmarked) [compound 15i, M-(5-cyclopropyl-1G-pyrazol-3-yl)-2-(5-(cyclopropylsulfonyl)-2,5-diazabicyclo[2.2.1]heptan-2-yl)quinazolin-4-amine]	0.2^b %	5.2	310	2100	15.5	2000	–
O=S(=O)(C1CCCCC1)N1CC2CC1CN2c1nc(Nc2cc(C3CC3)[nH]n2)c2ccccc2n1 (centres unmarked) [compound 15k, 2-(5-(cyclohexylsulfonyl)-2,5-diazabicyclo[2.2.1]heptan-2-yl)-M-(5-cyclopropyl-1G-pyrazol-3-yl)quinazolin-4-amine]	0.5^b %	12.7	152	3500	11.3	4100	–
O=S(=O)(Cc1ccccc1)N1CC2CC1CN2c1nc(Nc2cc(C3CC3)[nH]n2)c2ccccc2n1 (centres unmarked) [compound 15l, 2-(5-(benzylsulfonyl)-2,5-diazabicyclo[2.2.1]heptan-2-yl)-M-(5-cyclopropyl-1G-pyrazol-3-yl)quinazolin-4-amine]	1.9^b %	2.4	226	3700	18.1	2700	–
O=S(=O)(c1c(F)cccc1F)N1CC2CC1CN2c1nc(Nc2cc(C3CC3)[nH]n2)c2ccccc2n1 (centres unmarked) [compound 15p, M-(5-cyclopropyl-1G-pyrazol-3-yl)-2-(5-((2,6-difluorophenyl)sulfonyl)-2,5-diazabicyclo[2.2.1]heptan-2-yl)quinazolin-4-amine]	2.6^b %	7.4	331	4400	180	4100	–
COc1cccc(S(=O)(=O)N2CC3CC2CN3c2nc(Nc3cc(C4CC4)[nH]n3)c3ccccc3n2)c1 (centres unmarked) [compound 15r, M-(5-cyclopropyl-1G-pyrazol-3-yl)-2-(5-((3-methoxyphenyl)sulfonyl)-2,5-diazabicyclo[2.2.1]heptan-2-yl)quinazolin-4-amine]	0.2^b %	19	492	5500	22.7	4300	–
CC(=O)c1ccc(S(=O)(=O)N2CC3CC2CN3c2nc(Nc3cc(C4CC4)[nH]n3)c3ccccc3n2)cc1 (centres unmarked) [compound 15s, 1-(4-((5-(4-((5-cyclopropyl-1G-pyrazol-3-yl)amino)quinazolin-2-yl)-2,5-diazabicyclo[2.2.1]heptan-2-yl)sulfonyl)phenyl)ethan-1-one]	0.2^b %	5.1	354	2200	19.2	2900	–
Cc1cccc(S(=O)(=O)N2CC3CC2CN3c2nc(Nc3cc(C4CC4)[nH]n3)c3ccccc3n2)c1 (centres unmarked) [compound 15t, M-(5-cyclopropyl-1G-pyrazol-3-yl)-2-(5-(/ -tolylsulfonyl)-2,5-diazabicyclo[2.2.1]heptan-2-yl)quinazolin-4-amine]	0^b %	35.5	563	6200	15.5	7900	–
